In patent publication US11472795B2, “1H-indazole-3-carboxamide compounds as glycogen synthase kinase 3 beta inhibitors” (AZIENDE CHIMICHE RIUNITE ANGELINI FRANCESCO—A.C.R.A.F. …, priority 2018, dated 2022):

Tests used:
hERG ion channel = hERG ion channel (Homo sapiens (Human), UniProt Q12809)
Protocol: (2006), Expert Opin. Ther. Targets, 10 (2): 230-241 using the recombinant human cell line CHO-K1, which stably expresses the hERG ion channel.
The degree of inhibition (%) was obtained by measuring the tail current amplitude, which is induced by a one second test pulse to −40 mV after a two second pulse to +20 mV, before and after drug incubation (the difference current was normalized to control and multiplied by 100 to obtain the percent of inhibition). […] The concentration response relationship of each compound was constructed from the percentage reductions of current amplitude by sequential concentrations.

human GSK-3β = human GSK-3β (Homo sapiens (Human), UniProt P49841); experiment: Test I - Activity on human GSK-3β (LANCE substrate phosphorylation); format: biochemical; details: human recombinant GSK-3β, 90 minutes at 22° C., five concentrations 10 μM to 1 nM, duplicate; read-out: GSK-33 IC50
human GSK-3β, sequence (P49841 whole entry): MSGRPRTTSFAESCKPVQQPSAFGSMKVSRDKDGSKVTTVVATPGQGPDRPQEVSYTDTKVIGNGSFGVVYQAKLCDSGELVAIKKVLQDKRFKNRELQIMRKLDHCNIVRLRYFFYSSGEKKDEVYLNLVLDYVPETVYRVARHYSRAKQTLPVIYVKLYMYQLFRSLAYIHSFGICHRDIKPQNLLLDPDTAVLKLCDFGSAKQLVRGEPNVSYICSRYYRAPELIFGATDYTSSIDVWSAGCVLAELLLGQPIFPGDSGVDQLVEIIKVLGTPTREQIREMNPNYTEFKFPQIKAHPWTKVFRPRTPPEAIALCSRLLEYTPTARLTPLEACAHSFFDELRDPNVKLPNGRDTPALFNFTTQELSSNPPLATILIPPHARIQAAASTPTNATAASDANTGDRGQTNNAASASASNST
Protocol: Human recombinant enzyme GSK-3β was incubated for 90 minutes at 22° C. in the presence of compounds or vehicle in a reaction buffer containing ATP plus 100 nM unphosphorylated specific substrate peptide (Ulight-[…]-amide). Substrate phosphorylation was measured by LANCE technology (PerkinElmer, CT, USA).

hERG ion channel, sequence (Q12809 whole entry): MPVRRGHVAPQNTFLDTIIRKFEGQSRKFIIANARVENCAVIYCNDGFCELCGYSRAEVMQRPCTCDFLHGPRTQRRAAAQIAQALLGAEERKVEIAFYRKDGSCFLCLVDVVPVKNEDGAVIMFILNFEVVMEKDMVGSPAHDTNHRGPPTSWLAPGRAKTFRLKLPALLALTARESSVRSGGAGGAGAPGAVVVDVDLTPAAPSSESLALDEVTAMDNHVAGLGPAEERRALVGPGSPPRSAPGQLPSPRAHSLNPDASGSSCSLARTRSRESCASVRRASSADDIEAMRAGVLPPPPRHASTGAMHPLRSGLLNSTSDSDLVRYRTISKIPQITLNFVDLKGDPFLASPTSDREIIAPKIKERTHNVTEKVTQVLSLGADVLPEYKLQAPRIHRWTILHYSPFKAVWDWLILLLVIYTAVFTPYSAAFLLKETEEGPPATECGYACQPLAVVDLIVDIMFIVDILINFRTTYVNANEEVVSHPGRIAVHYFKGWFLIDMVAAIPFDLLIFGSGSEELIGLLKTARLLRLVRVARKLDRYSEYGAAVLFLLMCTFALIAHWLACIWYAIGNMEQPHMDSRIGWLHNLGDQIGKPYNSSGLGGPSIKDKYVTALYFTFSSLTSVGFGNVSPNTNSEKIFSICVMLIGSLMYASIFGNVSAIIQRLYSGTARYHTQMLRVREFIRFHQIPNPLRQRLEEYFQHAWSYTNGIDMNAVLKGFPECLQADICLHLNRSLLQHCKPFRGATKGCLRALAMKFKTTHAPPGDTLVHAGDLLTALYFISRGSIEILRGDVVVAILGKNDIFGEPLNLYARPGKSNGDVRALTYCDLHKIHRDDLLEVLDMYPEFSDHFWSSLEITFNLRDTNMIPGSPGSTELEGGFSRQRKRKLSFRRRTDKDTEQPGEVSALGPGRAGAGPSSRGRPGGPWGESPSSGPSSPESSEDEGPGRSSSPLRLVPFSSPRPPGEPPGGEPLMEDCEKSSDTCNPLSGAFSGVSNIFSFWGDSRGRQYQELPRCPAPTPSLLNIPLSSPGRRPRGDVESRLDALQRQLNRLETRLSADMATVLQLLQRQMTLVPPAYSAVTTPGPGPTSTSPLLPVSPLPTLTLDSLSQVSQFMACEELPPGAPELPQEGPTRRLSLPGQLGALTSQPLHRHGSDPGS

| SMILES | IC50 (human GSK-3β) | IC50 (hERG ion channel) | hERG/GSK-3β Ratio (hERG ion channel) |
| --- | --- | --- | --- |
| O=C(NC1CCS(=O)(=O)C1)c1n[nH]c2ccc(-c3cncc(CO)c3)cc12 (centres unmarked) [Compound 6, 5-(5-(Hydroxymethyl)pyridin-3-yl)-N-(1,1-dioxidotetrahydrothiophen-3-yl)-1H-indazole-3-carboxamide] | 17 nM | > 100 µM | – |
| O=C(NCC1CCCCO1)c1n[nH]c2ccc(-c3cccc(F)c3F)cc12 (centres unmarked) [Compound 14, 5-(2,3-Difluorophenyl)-N-((tetrahydro-2H-pyran-2-yl)methyl)-1H-indazole-3-carboxamide] | 436 nM | > 100 µM | – |
| CN(C)Cc1cncc(-c2ccc3[nH]nc(C(=O)NCC4CCOCC4)c3c2)c1 [Compound 16, 5-(5-((Dimethylamino)methyl)pyridin-3-yl)-N-((tetrahydro-2H-pyran-4-yl)methyl)-1H-indazole-3-carboxamide] | 23 nM | 44 µM | 1,913 |
| O=C(NCC1CCOCC1)c1n[nH]c2ccc(-c3cncc(CN4CCCC4)c3)cc12 [Compound 17, 5-(5-(Pyrrolidin-1-ylmethyl)pyridin-3-yl)-N-((tetrahydro-2H-pyran-4-yl)methyl)-1H-indazole-3-carboxamide] | 17 nM | 6.7 µM | 394 |
| O=C(NCC1CCOCC1)c1n[nH]c2ccc(-c3cnccc3CN3CCCC3)cc12 [Compound 19, 5-(4-(Pyrrolidin-1-ylmethyl)pyridin-3-yl)-N-((tetrahydro-2H-pyran-4-yl)methyl)-1H-indazole-3-carboxamide] | 140 nM | 16 µM | 114 |
| O=C(NCC1CCOCC1)c1n[nH]c2ccc(-c3cnccc3CN3CCOCC3)cc12 [Compound 20, 5-(4-(Morpholinomethyl)pyridin-3-yl)-N-((tetrahydro-2H-pyran-4-yl)methyl)-1H-indazole-3-carboxamide carboxamide] | 18.5 nM | 46 µM | 2,487 |
| CN(C)Cc1ccncc1-c1ccc2[nH]nc(C(=O)NCC3CCOCC3)c2c1 [Compound 21, 5-(4-((Dimethylamino)methyl)pyridin-3-yl)-N-((tetrahydro-2H-pyran-4-yl)methyl)-1H-indazole-3-carboxamide] | 220 nM | 40 µM | 182 |
| O=C(NCC1CCOCC1)c1n[nH]c2ccc(-c3cnccc3CN3CCNCC3)cc12 [Compound 24, 5-(4-(piperazin-1-ylmethyl)pyridin-3-yl)-N-((tetrahydro-2H-pyran-4-yl)methyl)-1H-indazole-3-carboxamide] | 120 nM | 93.8 µM | 782 |

More lines, main results first:

| IC50 (human GSK-3β) | SMILES | IC50 (hERG ion channel) | hERG/GSK-3β Ratio (hERG ion channel) |
| --- | --- | --- | --- |
| 17 nM | CC(C)Oc1cncc(-c2ccc3[nH]nc(C(=O)NCC4CCOC4)c3c2)c1 (centres unmarked) [Compound 4, 5-(5-Isopropoxypyridin-3-yl)-N-((tetrahydrofuran-3-yl)methyl)-1H-indazole-3-carboxamide] | 6.2 µM | 365 |
| 16 nM | COCc1cncc(-c2ccc3[nH]nc(C(=O)NCC4CCS(=O)(=O)C4)c3c2)c1 (centres unmarked) [Compound 5] | > 100 µM | – |
| 12 nM | CC(C)Oc1cncc(-c2ccc3[nH]nc(C(=O)NCC4CCS(=O)(=O)C4)c3c2)c1 (centres unmarked) [Compound 11] | 5.4 µM | 450 |
| 13 nM | O=C(NCC1CCOCC1)c1n[nH]c2ccc(-c3cncc(CN4CCOCC4)c3)cc12 [Compound 27, 5-(5-(morpholinomethyl)pyridin-3-yl)-N-((tetrahydro-2H-pyran-4-yl)methyl)-1H-indazole-3-carboxamide] | 3.5 µM | 269 |
| 6 nM | CNCc1cncc(-c2ccc3[nH]nc(C(=O)NCC4CCOCC4)c3c2)c1 [Compound 28, 5-(5-((methylamino)methyl)pyridin-3-yl)-N-((tetrahydro-2H-pyran-4-yl)methyl)-1H-indazole-3-carboxamide] | > 100 µM | – |
